# Data from patent US4442044A, “Process for preparing monoesters and diesters of N-alkyl substituted amino methyl phosphonic acid” (priority 1983, dated 1984).
# Assays:
# Format in all cases: in vivo
# Barnyardgrass [1] = assay: post-emergent herbicidal activity, greenhouse; conditions: 4 WAT
# Summary of the method: (§1)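 Seeds or propagules sown in compacted top soil, grown 2–3 weeks in greenhouse, then sprayed with compound solution/suspension containing ~0.4% emulsifier at tabulated rates. Injury scored visually versus untreated controls at ~2 and 4 weeks after treatment, expressed as a herbicidal activity index.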
# Cocklebur [2] = assay: post-emergent herbicidal activity, greenhouse; conditions: 4 WAT
# Summary of the method: as §1
# Downy Brome [3] = assay: post-emergent herbicidal activity, greenhouse; conditions: 4 WAT
# Summary of the method: as §1
# Hemp Sesbania = assay: post-emergent herbicidal activity, greenhouse; conditions: Table II, 4 WAT
# Summary of the method: as §1
# Johnsongrass [4] = assay: post-emergent herbicidal activity, greenhouse; conditions: Table I, 4 WAT
# Summary of the method: as §1
# Lambsquarters [5] = assay: post-emergent herbicidal activity, greenhouse; conditions: 4 WAT
# Summary of the method: as §1
# Morningglory [6] = assay: post-emergent herbicidal activity, greenhouse; conditions: 4 WAT
# Summary of the method: as §1
# Panicum Spp = assay: post-emergent herbicidal activity, greenhouse; conditions: Table II, 4 WAT
# Summary of the method: as §1
# Quackgrass [7] = assay: post-emergent herbicidal activity, greenhouse; conditions: Table I, 4 WAT
# Summary of the method: as §1
# Rice = assay: post-emergent herbicidal activity, greenhouse; conditions: Table II, 4 WAT
# Summary of the method: as §1
# Smartweed [8] = assay: post-emergent herbicidal activity, greenhouse; conditions: 4 WAT
# Summary of the method: as §1
# Sorghum = assay: post-emergent herbicidal activity, greenhouse; conditions: Table II, 4 WAT
# Summary of the method: as §1
# Soybean = assay: post-emergent herbicidal activity, greenhouse; conditions: Table II, 4 WAT
# Summary of the method: as §1
# Sugar Beet = assay: post-emergent herbicidal activity, greenhouse; conditions: Table II, 4 WAT
# Summary of the method: as §1
# Velvetleaf [9] = assay: post-emergent herbicidal activity, greenhouse; conditions: 4 WAT
# Summary of the method: as §1
# Wheat = assay: post-emergent herbicidal activity, greenhouse; conditions: Table II, 4 WAT
# Summary of the method: as §1
# Wild Buckwheat = assay: post-emergent herbicidal activity, greenhouse; conditions: Table II, 4 WAT
# Summary of the method: as §1
# Yellow Nutsedge [10] = assay: post-emergent herbicidal activity, greenhouse; conditions: Table I, 4 WAT
# Summary of the method: as §1
# Barnyardgrass [11] = assay: pre-emergent herbicidal activity, soil incorporation; conditions: Table III, 2 WAT, 11.2 kg/h
# Excerpt: (§2) A good grade of top soil is placed in aluminum pans and compacted to a depth of 0.95 to 1.27 cm. from the top of each pan. A predetermined number of seeds or vegetative propagules of each of several plant species are placed on top of the soil in each pan and then pressed down. Herbicidal compositions prepared as in the previous example are applied by admixture with or incorporation in the top layer of soil.
# (§3) In this method, the soil required to cover the seeds and propagules is weighed and admixed with a herbicidal composition containing a known amount of the active ingredient (compound of this invention). The pans are then filled with the admixture and leveled. Watering is carried out by permitting the soil in the pans to absorb moisture through apertures in the pan bottoms. The seed and propagule containing pans are placed on a wet sand bench and maintained for approximately two weeks under ordinary conditions of sunlight and watering. At the end of this period, the number of emerged plants of each species is noted and compared to an untreated control.
# (§4) The pre-emergent herbicidal activity index used below is based upon average percent control of each species as follows: […]
# Cocklebur [12] = assay: as above; conditions: Table III, 2 WAT, 11.2 kg/h
# Excerpt: as §2, §3, §4
# Downy Brome [13] = assay: as above; conditions: Table III, 2 WAT, 11.2 kg/h
# Excerpt: as §2, §3, §4
# Johnsongrass [14] = assay: as above; conditions: Table III, 2 WAT, 11.2 kg/h
# Excerpt: as §2, §3, §4
# Lambsquarters [15] = assay: as above; conditions: Table III, 2 WAT, 11.2 kg/h
# Excerpt: as §2, §3, §4
# Morningglory [16] = assay: as above; conditions: Table III, 2 WAT, 11.2 kg/h
# Excerpt: as §2, §3, §4
# Quackgrass [17] = assay: as above; conditions: Table III, 2 WAT, 11.2 kg/h
# Excerpt: as §2, §3, §4
# Smartweed [18] = assay: as above; conditions: Table III, 2 WAT, 11.2 kg/h
# Excerpt: as §2, §3, §4
# Velvetleaf [19] = assay: as above; conditions: Table III, 2 WAT, 11.2 kg/h
# Excerpt: as §2, §3, §4
# Yellow Nutsedge [20] = assay: as above; conditions: Table III, 2 WAT, 11.2 kg/h
# Excerpt: as §2, §3, §4
compound,measurement,setting,value
"CCOCCOC(=O)CNCP(=O)(O)OC(C)C#N (stereo not drawn) [Example 9, glycine, N-[[(1-cyanoethoxy)hydroxyphosphinyl]-methyl],2-ethoxyethyl ester]",post-emergent herbicidal activity index,"Barnyardgrass [1]; Table I, 5.6 kg/h",3 (75-99% control)
same,post-emergent herbicidal activity index,"Barnyardgrass [1]; Table I, 11.2 kg/h",3 (75-99% control)
same,post-emergent herbicidal activity index,"Barnyardgrass [1]; Table II, 0.28 kg/h",2 (50-74% control)
same,post-emergent herbicidal activity index,"Barnyardgrass [1]; Table II, 1.12 kg/h",3 (75-99% control)
same,post-emergent herbicidal activity index,"Barnyardgrass [1]; Table II, 5.6 kg/h",3 (75-99% control)
same,post-emergent herbicidal activity index,"Cocklebur [2]; Table I, 5.6 kg/h",3 (75-99% control)
same,post-emergent herbicidal activity index,"Cocklebur [2]; Table I, 11.2 kg/h",4 (100% control)
same,post-emergent herbicidal activity index,"Cocklebur [2]; Table II, 0.28 kg/h",1 (25-49% control)
same,post-emergent herbicidal activity index,"Cocklebur [2]; Table II, 1.12 kg/h",1 (25-49% control)
same,post-emergent herbicidal activity index,"Cocklebur [2]; Table II, 5.6 kg/h",4 (100% control)
same,post-emergent herbicidal activity index,"Downy Brome [3]; Table I, 5.6 kg/h",2 (50-74% control)
same,post-emergent herbicidal activity index,"Downy Brome [3]; Table I, 11.2 kg/h",3 (75-99% control)
same,post-emergent herbicidal activity index,"Downy Brome [3]; Table II, 0.28 kg/h",2 (50-74% control)
same,post-emergent herbicidal activity index,"Downy Brome [3]; Table II, 1.12 kg/h",1 (25-49% control)
same,post-emergent herbicidal activity index,"Downy Brome [3]; Table II, 5.6 kg/h",4 (100% control)
same,post-emergent herbicidal activity index,Hemp Sesbania; 0.28 kg/h,1 (25-49% control)
same,post-emergent herbicidal activity index,Hemp Sesbania; 1.12 kg/h,1 (25-49% control)
same,post-emergent herbicidal activity index,Hemp Sesbania; 5.6 kg/h,1 (25-49% control)
same,post-emergent herbicidal activity index,Johnsongrass [4]; 5.6 kg/h,4 (100% control)
same,post-emergent herbicidal activity index,Johnsongrass [4]; 11.2 kg/h,4 (100% control)
same,post-emergent herbicidal activity index,"Lambsquarters [5]; Table I, 5.6 kg/h",4 (100% control)
same,post-emergent herbicidal activity index,"Lambsquarters [5]; Table I, 11.2 kg/h",4 (100% control)
same,post-emergent herbicidal activity index,"Lambsquarters [5]; Table II, 0.28 kg/h",4 (100% control)
same,post-emergent herbicidal activity index,"Lambsquarters [5]; Table II, 1.12 kg/h",4 (100% control)
same,post-emergent herbicidal activity index,"Lambsquarters [5]; Table II, 5.6 kg/h",4 (100% control)
same,post-emergent herbicidal activity index,"Morningglory [6]; Table I, 5.6 kg/h",2 (50-74% control)
same,post-emergent herbicidal activity index,"Morningglory [6]; Table I, 11.2 kg/h",3 (75-99% control)
same,post-emergent herbicidal activity index,"Morningglory [6]; Table II, 0.28 kg/h",2 (50-74% control)
same,post-emergent herbicidal activity index,"Morningglory [6]; Table II, 1.12 kg/h",2 (50-74% control)
same,post-emergent herbicidal activity index,"Morningglory [6]; Table II, 5.6 kg/h",2 (50-74% control)
same,post-emergent herbicidal activity index,Panicum Spp; 0.28 kg/h,4 (100% control)
same,post-emergent herbicidal activity index,Panicum Spp; 1.12 kg/h,4 (100% control)
same,post-emergent herbicidal activity index,Panicum Spp; 5.6 kg/h,4 (100% control)
same,post-emergent herbicidal activity index,Quackgrass [7]; 5.6 kg/h,4 (100% control)
same,post-emergent herbicidal activity index,Quackgrass [7]; 11.2 kg/h,4 (100% control)
same,post-emergent herbicidal activity index,Rice; 0.28 kg/h,1 (25-49% control)
same,post-emergent herbicidal activity index,Rice; 1.12 kg/h,2 (50-74% control)
same,post-emergent herbicidal activity index,Rice; 5.6 kg/h,3 (75-99% control)
same,post-emergent herbicidal activity index,"Smartweed [8]; Table I, 5.6 kg/h",2 (50-74% control)
same,post-emergent herbicidal activity index,"Smartweed [8]; Table I, 11.2 kg/h",3 (75-99% control)
same,post-emergent herbicidal activity index,"Smartweed [8]; Table II, 0.28 kg/h",2 (50-74% control)
same,post-emergent herbicidal activity index,"Smartweed [8]; Table II, 1.12 kg/h",2 (50-74% control)
same,post-emergent herbicidal activity index,"Smartweed [8]; Table II, 5.6 kg/h",1 (25-49% control)
same,post-emergent herbicidal activity index,Sorghum; 0.28 kg/h,2 (50-74% control)
same,post-emergent herbicidal activity index,Sorghum; 1.12 kg/h,1 (25-49% control)
same,post-emergent herbicidal activity index,Sorghum; 5.6 kg/h,3 (75-99% control)
same,post-emergent herbicidal activity index,Soybean; 0.28 kg/h,1 (25-49% control)
same,post-emergent herbicidal activity index,Soybean; 1.12 kg/h,3 (75-99% control)
same,post-emergent herbicidal activity index,Soybean; 5.6 kg/h,4 (100% control)
same,post-emergent herbicidal activity index,Sugar Beet; 0.28 kg/h,3 (75-99% control)
same,post-emergent herbicidal activity index,Sugar Beet; 1.12 kg/h,2 (50-74% control)
same,post-emergent herbicidal activity index,Sugar Beet; 5.6 kg/h,4 (100% control)
same,post-emergent herbicidal activity index,"Velvetleaf [9]; Table I, 5.6 kg/h",3 (75-99% control)
same,post-emergent herbicidal activity index,"Velvetleaf [9]; Table I, 11.2 kg/h",4 (100% control)
same,post-emergent herbicidal activity index,"Velvetleaf [9]; Table II, 0.28 kg/h",1 (25-49% control)
same,post-emergent herbicidal activity index,"Velvetleaf [9]; Table II, 1.12 kg/h",3 (75-99% control)
same,post-emergent herbicidal activity index,"Velvetleaf [9]; Table II, 5.6 kg/h",3 (75-99% control)
same,post-emergent herbicidal activity index,Wheat; 0.28 kg/h,2 (50-74% control)
same,post-emergent herbicidal activity index,Wheat; 1.12 kg/h,3 (75-99% control)
same,post-emergent herbicidal activity index,Wheat; 5.6 kg/h,3 (75-99% control)
same,post-emergent herbicidal activity index,Wild Buckwheat; 0.28 kg/h,1 (25-49% control)
same,post-emergent herbicidal activity index,Wild Buckwheat; 1.12 kg/h,0 (0-24% control)
same,post-emergent herbicidal activity index,Wild Buckwheat; 5.6 kg/h,3 (75-99% control)
same,post-emergent herbicidal activity index,Yellow Nutsedge [10]; 5.6 kg/h,1 (25-49% control)
same,post-emergent herbicidal activity index,Yellow Nutsedge [10]; 11.2 kg/h,3 (75-99% control)
same,pre-emergent herbicidal activity index,Barnyardgrass [11],0 (1-24% control)
same,pre-emergent herbicidal activity index,Cocklebur [12],0 (1-24% control)
same,pre-emergent herbicidal activity index,Downy Brome [13],0 (1-24% control)
same,pre-emergent herbicidal activity index,Johnsongrass [14],0 (1-24% control)
same,pre-emergent herbicidal activity index,Lambsquarters [15],0 (1-24% control)
same,pre-emergent herbicidal activity index,Morningglory [16],0 (1-24% control)
same,pre-emergent herbicidal activity index,Quackgrass [17],0 (1-24% control)
same,pre-emergent herbicidal activity index,Smartweed [18],0 (1-24% control)
same,pre-emergent herbicidal activity index,Velvetleaf [19],0 (1-24% control)
same,pre-emergent herbicidal activity index,Yellow Nutsedge [20],1 (25-49% control)
